Reference: ChEMBL document CHEMBL3758098, “3-(Dipropylamino)-5-hydroxybenzofuro[2,3-f]quinazolin-1(2H)-one (DPA-HBFQ-1) plays an inhibitory role on breast cancer cell growth and progression” (Eur J Med Chem, 2016)
The source made the active and inactive calls. No cut-off for these calls is given here.

Assays:
MCF7 = test: Cytotoxicity against human MCF7 cells assessed as growth inhibition at 1 uM after 5 days by MTT assay relative to vehicle-treated control; assay type: functional; conditions: MCF7, 120 h, read-out: GI
MDA-MB-231 = test: Cytotoxicity against human MDA-MB-231 cells assessed as growth inhibition at 1 uM after 5 days by MTT assay relative to vehicle-treated control; assay type: functional
[1] = Cytotoxicity against human MCF10A cells assessed as growth inhibition at 1 uM after 5 days by MTT assay relative to vehicle-treated control; assay type: cell-based; conditions: mcf-10a, 120 h

| SMILES | inhibition of growth at 1 µM (MCF7) | growth inhibition (GI) (MDA-MB-231) | Activity [1] |
| --- | --- | --- | --- |
| CCN(CC)c1nc2ccc3c4ccccc4oc3c2c(=O)[nH]1 | 10% | Active | Non-toxic |
| CCCN(CCC)c1nc2c(OC)cc3c4ccccc4oc3c2c(=O)[nH]1 | 37% | Active | Non-toxic |
